Assay results: paper PMC8286840, “Identifying SARS-CoV-2 antiviral compounds by screening for small molecule inhibitors of Nsp3 papain-like protease” (Biochemical Journal, 2021)
Counter-ions that a name gives are not always drawn. Like-named read-outs stand apart in the source and are kept apart here. Where a SMILES comes first, the peptide text is derived from it. [ ]: non-standard residue; d: D form. Dolaproine = CO[C@@H]([C@@H]1CCCN1)[C@@H](C)C(=O)O; Dil = CC[C@H](C)[C@H](NC)[C@@H](CC(=O)O)OC; NMeV = CN[C@H](C(=O)O)C(C)C

Experiments:
[1] = biological target: T1, SARS-CoV-2 PLpro (nsp3 1564–1878) (Severe acute respiratory syndrome coronavirus 2, UniProt P0DTD1); assay: biochemical; set-up: FRET-quenched peptide (Pro3) cleavage by PLpro, 10 min pre-incubation, slope over 20 min, normalised to no-compound control; conditions: low concentration screen, read-out: % of control remaining
[2] = biological target: T1, SARS-CoV-2 PLpro (nsp3 1564–1878); assay: biochemical; set-up: FRET-quenched peptide (Pro3) cleavage by PLpro, 10 min pre-incubation, slope over 20 min, normalised to no-compound control; conditions: high concentration screen, read-out: % of control remaining

Compound: CCCCNC(=O)NS(=O)(=O)c1ccc(C)cc1 [Tolbutamide]
- remaining activity at 1.25 µM ([1]; Well no.=1329): 107%
- remaining activity at 1.25 µM ([1]; Well no.=1601): 99.7%
- remaining activity at 3.75 µM ([2]; Well no.=1329): 104%
- remaining activity at 3.75 µM ([2]; Well no.=1601): 97.6%

Compound: FC(F)(F)c1ccc(CNc2ccc(Cc3c[nH]c4ncccc34)cn2)cc1 [5-((1H-pyrrolo[2,3-b]pyridin-3-yl)methyl)-N-(4-(trifluoromethyl)benzyl)pyridin-2-amine]
- remaining activity at 1.25 µM ([1]; Well no.=6012): 104%
- remaining activity at 3.75 µM ([2]; Well no.=6012): 102%

Compound: CC(=O)Oc1cc2c(s1)CCN(C(C(=O)C1CC1)c1ccccc1F)C2 (centres unmarked) [Prasugrel (Effient)]
- remaining activity at 1.25 µM ([1]; Well no.=4765): 103%
- remaining activity at 3.75 µM ([2]; Well no.=4765): 104%

Compound: CC(=O)[C@H]1CC[C@H]2[C@@H]3CC[C@H]4C[C@H](O)CC[C@]4(C)[C@H]3CC[C@]12C [Allopregnanolone]
- remaining activity at 1.25 µM ([1]; Well no.=6197): 105%
- remaining activity at 3.75 µM ([2]; Well no.=6197): 107%

Compound: CCOc1ccc(-c2cn(C)nc2-c2cc(OC)c(OC)c(OC)c2)cc1 [Tubulin inhibitor 1]
- remaining activity at 1.25 µM ([1]; Well no.=7162): 104%
- remaining activity at 3.75 µM ([2]; Well no.=7162): 97.8%

Compound: C=CCN1C[C@H](C(=O)N(CCCN(C)C)C(=O)NCC)C[C@@H]2c3cccc4[nH]cc(c34)C[C@H]21 [Cabergoline]
- remaining activity at 1.25 µM ([1]; Well no.=1929): 105%
- remaining activity at 1.25 µM ([1]; Well no.=7179): 94.5%
- remaining activity at 3.75 µM ([2]; Well no.=1929): 105%
- remaining activity at 3.75 µM ([2]; Well no.=7179): 96.6%

Compound: O=C(O)CCc1c[nH]c2ccccc12 [3-Indolepropionic acid]
- remaining activity at 1.25 µM ([1]; Well no.=6597): 99.7%
- remaining activity at 3.75 µM ([2]; Well no.=6597): 102%

Compound: CC[C@H](C)[C@@H]([C@@H](CC(=O)N1CCC[C@H]1[C@H](OC)[C@@H](C)C(=O)N[C@@H](Cc1ccccc1)C(=O)O)OC)N(C)C(=O)[C@@H](NC(=O)[C@@H](NC)C(C)C)C(C)C [MMAF (Hydrochloride)] (H-[NMeV]V[Dil][Dolaproine]F-OH)
- remaining activity at 1.25 µM ([1]; Well no.=7650): 89.6%
- remaining activity at 3.75 µM ([2]; Well no.=7650): 89.5%

Compound: CNC(=C[N+](=O)[O-])NCCSCc1csc(CN(C)C)n1 [Nizatidine]
- remaining activity at 1.25 µM ([1]; Well no.=4628): 101%
- remaining activity at 1.25 µM ([1]; Well no.=7378): 99.2%
- remaining activity at 3.75 µM ([2]; Well no.=4628): 99.2%
- remaining activity at 3.75 µM ([2]; Well no.=7378): 98.9%

Compound: NCCCNCCCCNCCCN [Spermine tetrahydrochloride]
- remaining activity at 1.25 µM ([1]; Well no.=1312): 100%
- remaining activity at 3.75 µM ([2]; Well no.=1312): 101%

Compound: Oc1ccc([C@H]2COc3cc(O)ccc3C2)cc1 [(-)-(S)-Equol]
- remaining activity at 1.25 µM ([1]; Well no.=7405): 110%
- remaining activity at 3.75 µM ([2]; Well no.=7405): 107%

Compound: COc1cc(C)c(/C=C/C(C)=C/C=C/C(C)=C/C(=O)O)c(C)c1C [Acitretin]
- remaining activity at 1.25 µM ([1]; Well no.=1817): 96.4%
- remaining activity at 3.75 µM ([2]; Well no.=1817): 96.3%

Compound: OC(CCN1CCCCC1)(c1ccccc1)C1C[C@@H]2C=C[C@H]1C2 (some centres unmarked) [Biperiden (Hydrochloride)]
- remaining activity at 1.25 µM ([1]; Well no.=7434): 97.8%
- remaining activity at 3.75 µM ([2]; Well no.=7434): 100%

Compound: CCN(CC)CCNC(=O)c1ccc(NC(C)=O)cc1 [N-Acetylprocainamide hydrochloride]
- remaining activity at 1.25 µM ([1]; Well no.=19): 104%
- remaining activity at 3.75 µM ([2]; Well no.=19): 103%

Compound: CNS(=O)(=O)Cc1ccc2[nH]cc(CCN(C)C)c2c1 [Sumatriptan (succinate)]
- remaining activity at 1.25 µM ([1]; Well no.=6379): 104%
- remaining activity at 3.75 µM ([2]; Well no.=6379): 91%

Compound: CCC(C)C(CC)C(N)=O (centres unmarked) [Valnoctamide]
- remaining activity at 1.25 µM ([1]; Well no.=5429): 103%
- remaining activity at 3.75 µM ([2]; Well no.=5429): 110%

Compound: C#CCN(C)Cc1ccccc1 [Pargyline hydrochloride]
- remaining activity at 1.25 µM ([1]; Well no.=1445): 99.1%
- remaining activity at 3.75 µM ([2]; Well no.=1445): 98.9%

Compound: O=C(Nc1ccc(C(O)(C(F)(F)F)C(F)(F)F)cc1)c1ccccc1Cl [SR0987]
- remaining activity at 1.25 µM ([1]; Well no.=8133): 95.1%
- remaining activity at 3.75 µM ([2]; Well no.=8133): 99.6%

Compound: CC(C)(C)S(=O)(=O)c1ccc2nccc(Nc3n[nH]c4ccc(F)cc34)c2c1 [GSK583]
- remaining activity at 1.25 µM ([1]; Well no.=6206): 101%
- remaining activity at 3.75 µM ([2]; Well no.=6206): 94.3%

Compound: Cc1ccnc(NS(=O)(=O)c2ccc(N)cc2)n1 [Sulfamerazine]
- remaining activity at 1.25 µM ([1]; Well no.=4941): 92.6%
- remaining activity at 1.25 µM ([1]; Well no.=8644): 94.8%
- remaining activity at 3.75 µM ([2]; Well no.=4941): 83.3%
- remaining activity at 3.75 µM ([2]; Well no.=8644): 92.4%

Compound: CN(C)c1ccc(O)c2c1C[C@H]1C[C@H]3[C@H](N(C)C)C(O)=C(C(N)=O)C(=O)[C@@]3(O)C(O)=C1C2=O [Minocycline hydrochloride]
- remaining activity at 1.25 µM ([1]; Well no.=797): 104%
- remaining activity at 3.75 µM ([2]; Well no.=797): 102%

Compound: CC(C)Cc1ccc([C@@H](C)C(=O)NS(C)(=O)=O)cc1 [Reparixin (L-lysine salt)]
- remaining activity at 1.25 µM ([1]; Well no.=8059): 100%
- remaining activity at 1.25 µM ([1]; Well no.=8125): 104%
- remaining activity at 3.75 µM ([2]; Well no.=8059): 99.6%
- remaining activity at 3.75 µM ([2]; Well no.=8125): 104%

Compound: CCOc1ccc(-n2c([C@@H](C)N(Cc3cccnc3)C(=O)Cc3ccc(F)c(C(F)(F)F)c3)nc3ncccc3c2=O)cc1 [NBI-74330]
- remaining activity at 1.25 µM ([1]; Well no.=8611): 108%
- remaining activity at 3.75 µM ([2]; Well no.=8611): 97.8%

Compound: NS(=O)(=O)c1cc2c(cc1Cl)NC(C(Cl)Cl)NS2(=O)=O (centres unmarked) [Trichlormethiazide]
- remaining activity at 1.25 µM ([1]; Well no.=8656): 102%
- remaining activity at 3.75 µM ([2]; Well no.=8656): 99.7%

Compound: O=C(NC[C@H]1CN(c2ccc(N3CCOCC3=O)cc2)C(=O)O1)c1ccc(Cl)s1 [Rivaroxaban]
- remaining activity at 1.25 µM ([1]; Well no.=8390): 93.8%
- remaining activity at 3.75 µM ([2]; Well no.=8390): 88.4%

Compound: O=C(/C=C/c1ccc(O)c(O)c1)OCCc1ccccc1 [Caffeic acid phenethyl ester]
- remaining activity at 1.25 µM ([1]; Well no.=140): 103%
- remaining activity at 3.75 µM ([2]; Well no.=140): 104%

Compound: CS(=N)(=O)CC[C@H](N)C(=O)O (stereo partly drawn) [L-Methionine sulfoximine]
- remaining activity at 1.25 µM ([1]; Well no.=1120): 96.3%
- remaining activity at 3.75 µM ([2]; Well no.=1120): 99.8%

Compound: CC(=O)O[C@]1(C(C)=O)CC[C@H]2[C@@H]3C[C@H](C)C4=CC(=O)CC[C@]4(C)[C@H]3CC[C@@]21C [Medroxyprogesterone 17-Acetate]
- remaining activity at 1.25 µM ([1]; Well no.=1949): 103%
- remaining activity at 3.75 µM ([2]; Well no.=1949): 104%

Compound: Nc1ncnc2nc(-c3ccc(N4CCOCC4)nc3)cc(-c3cccc(Br)c3)c12 [Adenosine Kinase Inhibitor]
- remaining activity at 1.25 µM ([1]; Well no.=2694): 102%
- remaining activity at 3.75 µM ([2]; Well no.=2694): 103%

Compound: CC[C@H]1CN(c2nc(N)c(C(N)=O)nc2Cl)CCN1C1CCN(Cc2ccc(Cl)cc2)CC1 [SCH 546738]
- remaining activity at 1.25 µM ([1]; Well no.=8659): 103%
- remaining activity at 3.75 µM ([2]; Well no.=8659): 106%

Compound: NC(=O)CC[C@@H](N)C(=O)O [D-glutamine]
- remaining activity at 1.25 µM ([1]; Well no.=4996): 98.2%
- remaining activity at 3.75 µM ([2]; Well no.=4996): 99.6%

Compound: CN1CCc2cc(O)cc3c2[C@H]1Cc1ccc(O)c(O)c1-3 [R(-)-2,10,11-Trihydroxyaporphine hybrobromide]
- remaining activity at 1.25 µM ([1]; Well no.=588): 104%
- remaining activity at 3.75 µM ([2]; Well no.=588): 100%
